According to patent publication US9326516B2, “Molecules having certain pesticidal utilities, and intermediates, compositions, and processes related thereto” (Dow AgroSciences LLC, priority 2014, dated 2016):

Key:
Format in all cases: in vivo
[1] = test system: Beet Armyworm (Spodoptera exigua, LAPHEG); experiment: Bioassay on Beet Armyworm (BAW), 128-well diet tray assay; details: 168 h, 50 μg/cm^2 on artificial diet, second instar BAW larvae, 25° C., five to seven days, average of eight wells, read-out: BAW % Control (or Mortality) rating
Procedure: (§1) Certain molecules disclosed in this document were tested against BAW and CEW using procedures described in the following examples. In the reporting of the results, the “BAW & CL Rating Table” was used (See Table Section).
Bioassays on BAW were conducted using a 128-well diet tray assay. one to five second instar BAW larvae were placed in each well (3 mL) of the diet tray that had been previously filled with 1 mL of artificial diet to which 50 μg/cm^2 of the test compound (dissolved in 50 μL of 90:10 acetone-water mixture) had been applied (to each of eight wells) and then allowed to dry. Trays were covered with a clear self-adhesive cover and held at 25° C., 14:10 light-dark for five to seven days. Percent mortality was recorded for the larvae in each well; activity in the eight wells was then averaged. The results are indicated in the table entitled “Table ABC: Biological Results” (See Table Section).

[2] = test system: Green Peach Aphid (Myzus persicae, MYZUPE); experiment: Bioassay on Green Peach Aphid (GPA), foliar spray on cabbage seedlings; details: 72 h, 200 ppm spray on infested cabbage seedlings, graded after three days, Abbott corrected % control, read-out: GPA % Control (or Mortality) rating
Procedure: Certain molecules disclosed in this document were tested against GPA using procedures described in the following example. In the reporting of the results, the “GPA Rating Table” was used (See Table Section).
Cabbage seedlings grown in 3-inch pots, with 2-3 small (3-5 cm) true leaves, were used as test substrate. The seedlings were infested with 20-50 GPA (wingless adult and nymph stages) one day prior to chemical application. Four pots with individual seedlings were used for each treatment. Test compounds (2 mg) were dissolved in 2 mL of acetone/methanol (1:1) solvent, forming stock solutions of 1000 ppm test compound. The stock solutions were diluted 5× with 0.025% Tween 20 in water to obtain the solution at 200 ppm test compound. A hand-held aspirator-type sprayer was used for spraying a solution to both sides of […] leaves until runoff. Reference plants (solvent check) were sprayed with the diluent only containing 20% by volume of acetone/methanol (1:1) solvent. Treated plants were held in a holding room for three days at approximately 25° C. and ambient relative humidity (RH) prior to grading. Evaluation was conducted by counting the number of live aphids per plant under a microscope. Percent Control was measured by using Abbott's correction formula (W. S. Abbott, “A Method of Computing the Effectiveness of an Insecticide” J. Econ. Entomol. 18 (1925), pp. 265-267) as follows. Corrected % Control=100*(X−Y)/X where X=No. of live aphids on solvent check plants and Y=No. of live aphids on treated plants

[3] = test system: Yellow Fever Mosquito (Aedes aegypti, AEDSAE); details: about 1 day-old larvae, master plate 4000 ppm in DMSO diluted, room temperature, scored after 3 days on mortality
Procedure: Certain molecules disclosed in this document were tested against YFM using procedures described in the following paragraph. In the reporting of the results, the “YFM Rating Table” was used (See Table Section).
Master plates containing 400 μg of a molecule dissolved in 100 μL of dimethyl sulfoxide (DMSO) (equivalent to a 4000 ppm solution) are used. A master plate of assembled molecules contains 15 μL per well. To this plate, 135 μL of a 90:10 water:acetone mixture is added to each well. A robot (Biomek® NXP Laboratory Automation Workstation) is programmed to dispense 15 μL aspirations from the master plate into an empty 96-well shallow plate (“daughter” plate). There are 6 reps (“daughter” plates) created per master. The created daughter plates are then immediately infested with YFM larvae.
The day before plates are to be treated, mosquito eggs are placed in Millipore water containing liver powder to begin hatching (4 g. into 400 mL). After the daughter plates are created using the robot, they are infested with 220 μL of the liver powder/larval mosquito mixture (about 1 day-old larvae). After plates are infested with mosquito larvae, a non-evaporative lid is used to cover the plate to reduce drying. Plates are held at room temperature for 3 days prior to grading. After 3 days, each well is observed and scored based on mortality.

[4] = test system: Cabbage Looper (Trichoplusia ni, TRIPNI); experiment: Bioassay on Cabbage Looper (CL), 128-well diet tray assay; details: 168 h, 50 μg/cm^2 on artificial diet, second instar CL larvae, 25° C., five to seven days, average of eight wells, read-out: CL % Control (or Mortality) rating
Procedure: as §1
Bioassays on CL were conducted using a 128-well diet tray assay, one to five second instar CL larvae were placed in each well (3 mL) of the diet tray that had been previously filled with 1 mL of artificial diet to which 50 μg/cm^2 of the test compound (dissolved in 50 μL of 90:10 acetone-water mixture) had been applied (to each of eight wells) and then allowed to dry. Trays were covered with a clear self-adhesive cover and held at 25° C., 14:10 light-dark for five to seven days. Percent mortality was recorded for the larvae in each well; activity in the eight wells was then averaged. The results are indicated in the table entitled “Table ABC: Biological Results” (See Table Section).

| SMILES | mortality at 50 µg/cm2 [1] [%] | mortality at 200 ppm [2] [%] | YFM % Control (or Mortality) rating [3] | mortality at 50 µg/cm2 [4] [%] |
| --- | --- | --- | --- | --- |
| FC(F)(F)Oc1ccc(-n2cnc(-c3ccc(NC4=N[C@H](c5ccccc5)CO4)cc3)n2)cc1 [Compound F1, (R)-4-Phenyl-N-(4-(1-(4-(trifluoromethoxy)phenyl)-1H-1,2,4-triazol-3-yl)phenyl)-4,5-dihydrooxazol-2-amine] | 50 to 100 | 80 to 100 | B (More than 0-Less than 80) | 50 to 100 |
| FC(F)(F)Oc1ccc(-n2cnc(-c3ccc(NC4=NC(c5ccc(Br)cc5)CS4)cc3)n2)cc1 (stereo not shown) [Compound F26, 4-(4-Bromophenyl)-N-(4-(1-(4-(trifluoromethoxy)phenyl)-1H-1,2,4-triazol-3-yl)phenyl)-4,5-dihydrothiazol-2-amine] | 0 | 0 |  | 0 to 50 |
| FC(F)(F)Oc1ccc(-n2cnc(-c3ccc(NC4=NC(c5ccc(C(F)(F)F)cc5)CS4)cc3)n2)cc1 (stereo not shown) [Compound F27, N-(4-(1-(4-(Trifluoromethoxy)phenyl)-1H-1,2,4-triazol-3-yl)phenyl)-4-(4-(trifluoromethyl)phenyl)-4,5-dihydrothiazol-2-amine] | 0 | 0 |  | 50 to 100 |
| FC(F)(F)Oc1ccc(C2CSC(Nc3ccc(-c4ncn(-c5ccc(OC(F)(F)F)cc5)n4)cc3)=N2)cc1 (stereo not shown) [Compound F28, 4-(4-(Trifluoromethoxy)phenyl)-N-(4-(1-(4-(trifluoromethoxy)phenyl)-1H-1,2,4-triazol-3-yl)phenyl)-4,5-dihydrothiazol-2-amine] | 0 to 50 | 0 |  | 0 |
| FC(F)(F)Oc1ccc(-n2cnc(-c3ccc(NC4=NC(c5cccc(Cl)c5)CS4)cc3)n2)cc1 (stereo not shown) [Compound F29, 4-(3-Chlorophenyl)-N-(4-(1-(4-(trifluoromethoxy)phenyl)-1H-1,2,4-triazol-3-yl)phenyl)-4,5-dihydrothiazol-2-amine] | 50 to 100 | 0 |  | 50 to 100 |
| FC(F)(F)Oc1ccc(-n2cnc(-c3ccc(NC4=NC(c5ccccc5Cl)CS4)cc3)n2)cc1 (stereo not shown) [Compound F30, 4-(2-Chlorophenyl)-N-(4-(1-(4-(trifluoromethoxy)phenyl)-1H-1,2,4-triazol-3-yl)phenyl)-4,5-dihydrothiazol-2-amine] | 50 to 100 | 0 |  | 50 to 100 |
| Cc1cc(C2CSC(Nc3ccc(-c4ncn(-c5ccc(OC(F)(F)F)cc5)n4)cc3)=N2)ccc1Cl (stereo not shown) [Compound F31, 4-(4-Chloro-3-methylphenyl)-N-(4-(1-(4-(trifluoromethoxy)phenyl)-1H-1,2,4-triazol-3-yl)phenyl)-4,5-dihydrothiazol-2-amine] | 50 to 100 | 0 |  | 50 to 100 |
| COc1ccc(C2CSC(Nc3ccc(-c4ncn(-c5ccc(C(F)(F)F)cc5)n4)cc3)=N2)cc1 (stereo not shown) [Compound F32, 4-(4-Methoxyphenyl)-N-(4-(1-(4-(trifluoromethyl)phenyl)-1H-1,2,4-triazol-3-yl)phenyl)-4,5-dihydrothiazol-2-amine] | 0 | 0 |  | 0 |
| Cc1ccc(C2CSC(Nc3ccc(-c4ncn(-c5ccc(C(F)(F)F)cc5)n4)cc3)=N2)cc1 (stereo not shown) [Compound F33, 4-(p-Tolyl)-N-(4-(1-(4-(trifluoromethyl)phenyl)-1H-1,2,4-triazol-3-yl)phenyl)-4,5-dihydrothiazol-2-amine] | 0 | 0 to 80 |  | 0 |
| FC(F)(F)c1ccc(-n2cnc(-c3ccc(NC4=NC(c5ccccc5)CS4)cc3)n2)cc1 (stereo not shown) [Compound F34, 4-Phenyl-N-(4-(1-(4-(trifluoromethyl)phenyl)-1H-1,2,4-triazol-3-yl)phenyl)-4,5-dihydrothiazol-2-amine] | 50 to 100 | 0 |  | 50 to 100 |
| Fc1ccc(C2CSC(Nc3ccc(-c4ncn(-c5ccc(C(F)(F)F)cc5)n4)cc3)=N2)cc1 (stereo not shown) [Compound F35, 4-(4-Fluorophenyl)-N-(4-(1-(4-(trifluoromethyl)phenyl)-1H-1,2,4-triazol-3-yl)phenyl)-4,5-dihydrothiazol-2-amine] | 0 | 0 |  | 50 to 100 |
| FC(F)(F)c1ccc(-n2cnc(-c3ccc(NC4=NC(c5ccc(Cl)cc5)CS4)cc3)n2)cc1 (stereo not shown) [Compound F36, 4-(4-Chlorophenyl)-N-(4-(1-(4-(trifluoromethyl)phenyl)-1H-1,2,4-triazol-3-yl)phenyl)-4,5-dihydrothiazol-2-amine] | 0 | 0 |  | 50 to 100 |
| FC(F)(F)c1ccc(-n2cnc(-c3ccc(NC4=NC(c5ccc(Br)cc5)CS4)cc3)n2)cc1 (stereo not shown) [Compound F37] | 0 | 0 |  | 0 |
| FC(F)(F)c1ccc(C2CSC(Nc3ccc(-c4ncn(-c5ccc(C(F)(F)F)cc5)n4)cc3)=N2)cc1 (stereo not shown) [Compound F38, 4-(4-(Trifluoromethyl)phenyl)-N-(4-(1-(4-(trifluoromethyl)phenyl)-1H-1,2,4-triazol-3-yl)phenyl)-4,5-dihydrothiazol-2-amine] | 0 to 50 | 0 |  | 50 to 100 |
| FC(F)(F)Oc1ccc(C2CSC(Nc3ccc(-c4ncn(-c5ccc(C(F)(F)F)cc5)n4)cc3)=N2)cc1 (stereo not shown) [Compound F39, 4-(4-(Trifluoromethoxy)phenyl)-N-(4-(1-(4-(trifluoromethyl)phenyl)-1H-1,2,4-triazol-3-yl)phenyl)-4,5-dihydrothiazol-2-amine] | 0 | 0 |  | 0 |
| FC(F)(F)c1ccc(-n2cnc(-c3ccc(NC4=NC(c5cccc(Cl)c5)CS4)cc3)n2)cc1 (stereo not shown) [Compound F40, 4-(3-Chlorophenyl)-N-(4-(1-(4-(trifluoromethyl)phenyl)-1H-1,2,4-triazol-3-yl)phenyl)-4,5-dihydrothiazol-2-amine] | 50 to 100 | 0 to 80 |  | 50 to 100 |
| FC(F)(F)c1ccc(-n2cnc(-c3ccc(NC4=NC(c5ccccc5Cl)CS4)cc3)n2)cc1 (stereo not shown) [Compound F41, 4-(2-Chlorophenyl)-N-(4-(1-(4-(trifluoromethyl)phenyl)-1H-1,2,4-triazol-3-yl)phenyl)-4,5-dihydrothiazol-2-amine] | 50 to 100 | 0 |  | 50 to 100 |
| Cc1cc(C2CSC(Nc3ccc(-c4ncn(-c5ccc(C(F)(F)F)cc5)n4)cc3)=N2)ccc1Cl (stereo not shown) [Compound F42, 4-(4-Chloro-3-methylphenyl)-N-(4-(1-(4-(trifluoromethyl)phenyl)-1H-1,2,4-triazol-3-yl)phenyl)-4,5-dihydrothiazol-2-amine] | 0 | 0 |  | 0 |
